Experimental data published in patent US8278290B2, “Tubulin polymerisation inhibitors” (Biononics Limited, priority 2005, dated 2012).

How the values were obtained:
[1] = system: Tubulin; assay: Inhibition of tubulin polymerisation; format: biochemical; details: tubulin concentration 10 μM; extent of assembly after 20 min incubation at 30° C.; read-out: Inhib. Tubulin polymerisation IC50
[2] = system: Human umbilical vein endothelial cells; assay: Proliferation Assay - activated endothelium (MTT); format: cell-based; details: HUVEC, range within which the IC50 value falls, 48 hrs culture, read-out: Inhib activated HUVECs IC50
Description: Proliferation Assay—activated endothelium: Human umbilical vein endothelial cells (CC-2519, Clonetics) were plated at 2500 cells/well in EGM2 (CC-3162, Clonetics) in a 96 well plate in triplicate. Cells were cultured overnight at 37° C. 5% CO2. Medium was subsequently replaced with fresh medium including the compound or negative control. Cells were cultured for a period of 48 hrs. An MTT assay was performed to measure changes in cell numbers. Briefly, 20 μl of MTT reagent was added to cells containing 100 μl of EGM2 and incubated at 37° C. for 2 hours. Absorbance was measured at 492 nm.

[3] = system: MCF-7, cancer cell line; assay: MCF-7 growth inhibition (SRB or Sysmex cell counting); format: cell-based; details: SRB or CC assay
[4] = system: MDA-MB-231; assay: MDA-MB-231 growth inhibition (footnote b); format: cell-based; details: Homo sapiens; entries 59-60: cell line MDA-MB-231; range within which the IC50 value falls; read-out: cancer cell line IC50 (MDA-MB-231)
[5] = system: MDA-MB-231 tumour; assay: MDA-MB-231 tumour growth in mice; format: in vivo; details: 35 mg/kg/d (35 mg/kg/d for 3 days then 17.5 mg/kg/d for 3 days then none); 5 mice per group; FIG. 1
Description: The effect of 35 mg/kg/d CA4-P, compound entry 8, compound entry 9, compound entry 10 and compound entry 23 (administered at 35 mg/kg/d for 3 days then 17.5 mg/kg/d for 3 days then none) on MDA-MB-231 tumour growth is summarised in FIG. 1.
The effect of CA4-P and test compounds and saline on MDA-MB-231 tumour growth. Each group consisted of 5 mice. The data represent the mean tumour volume; bars SEM.

[6] = Homo sapiens, MCF7, concentration required to inhibit net cell growth by 50%
[7] = concentration required to inhibit net cell growth by 50%

IC50 [3, 6] [nM]	IC50 [3, 7] [nM]	IC50 [4] [nM]	SMILES	IC50 [1] [nM]	IC50 [2] [nM]	effect on MDA-MB-231 tumour growth [5]
0.37	0.32	–	COc1cc(C(=O)c2c(-c3nccs3)oc3c(O)c(OC)ccc23)cc(OC)c1OC [Entry 44, 7-Hydroxy-2-(2-thiazolyl)-3-(3,4,5-trimethoxybenzoyl)-6-methoxy-benzo[b]furan]	2200 ± 400	0.1 to 1	–
–	–	1 to 10	COc1cc(C(=O)c2c(-c3cncn3C)oc3c(O)c(OC)ccc23)cc(OC)c1OC [Entry 59, 7-Hydroxy-6-methoxy-2-(3-methyl-3H-imidazol-4-yl)-3-(3,4,5-trimethoxybenzoyl)-benzo[b]furan]	–	1 to 10	–
–	–	–	COc1cc(C(=O)c2c(-c3cnn(C)c3)oc3c(O)c(OC)ccc23)cc(OC)c1OC [Entry 14, 2-(4-N-Methylpyrazolyl)-3-(3,4,5-trimethoxybenzoyl)-6-methoxy-7-hydroxy-benzofuran]	1300 ± 70	0.1 to 1	–
–	–	–	COc1cc(C(=O)c2c(-c3ccco3)oc3c(O)c(OC)ccc23)cc(OC)c1OC [Entry 36, 2-(2-furanyl)-7-hydroxy-6-methoxy-3-(3,4,5-trimethoxybenzoyl)benzo[b]furan]	8700 ± 800	1 to 10	–
3.5	2.4	–	COc1cc(C(=O)c2c(-n3cccn3)oc3c(O)c(OC)ccc23)cc(OC)c1OC [Entry 34, 2-(N-pyrazolyl)-7-hydroxy-3-(3,4,5-trimethoxybenzoyl)-6-methoxy-benzo[b]furan]	–	100 to 1000	–
360	350	–	COc1ccc(-n2cc(-c3oc4cc(OC)ccc4c3C(=O)c3cc(OC)c(OC)c(OC)c3)cn2)cc1 [Entry 40, {6-Methoxy-2-[1-(4-methoxy-phenyl)-1H-pyrazol-4-yl]-benzofuran-3-yl}-(3,4,5-trimethoxyphenyl)-methanone]	–	100 to 1000	–
7.8	8.1	–	COc1cc(C(=O)c2c(-c3cnn(CC(N)=O)c3)oc3c(F)c(OC)ccc23)cc(OC)c1OC [Entry 53, 2-{4-[7-Fluoro-6-methoxy-3-(3,4,5-trimethoxybenzoyl)benzofuran-2-yl]-1H-pyrazol-1-yl}acetamide]	–	0.1 to 1	–
29	15	–	CCOC(=O)Cn1cc(-c2oc3cc(OC)ccc3c2C(=O)c2cc(OC)c(OC)c(OC)c2)cn1 [Entry 30, {4-[6-Methoxy-3-(3,4,5-trimethoxy-benzoyl)-benzofuran-2-yl]-pyrazol-1-yl}-acetic acid ethyl ester]	–	10 to 100	–
1 to 2	–	–	COc1ccc(-c2oc3c(O)c(OC)ccc3c2C(=O)c2cc(OC)c(OC)c(OC)c2)cc1 [Entry 4, reference compound]	1500 ± 400	–	–
1.6	< 1	–	COc1cc(C(=O)c2c(-n3ccnc3)oc3c(O)c(OC)ccc23)cc(OC)c1OC [Entry 27, 2-(N-imidazolyl)-7-hydroxy-3-(3,4,5-trimethoxybenzoyl)-6-methoxy-benzo[b]furan]	–	1 to 10	–
70	72	–	COc1ccc2c(C(=O)c3cc(OC)c(OC)c(OC)c3)c(-c3ccc(OC)nc3)oc2c1 [Entry 11, 2-(6-Methoxy-pyridin-3-yl)-3-(3,4,5-trimethoxybenzoyl)-6-methoxy-benzofuran]	< 4000	10 to 100	–
300	310	–	COc1ccc2c(C(=O)c3cc(OC)c(OC)c(OC)c3)c(-c3cnn(CCN(C)C)c3)oc2c1 [Entry 42, {2-[1-(2-Dimethylamino-ethyl)-1H-pyrazol-4-yl]-6-methoxy-benzofuran-3-yl}-(3,4,5-trimethoxyphenyl)-methanone]	–	100 to 1000	–
–	–	–	COc1cc(C(=O)c2c(-c3cnn(C)c3)oc3c(OP(=O)([O-])[O-])c(OC)ccc23)cc(OC)c1OC.[Na+].[Na+] [Entry 23, 2-(4-N-methylpyrazolyl)-3-(3,4,5-trimethoxybenzoyl)-6-methoxy-7-O-disodiumphosphate-benzofuran]	–	–	effectively inhibited
–	–	–	COc1ccc(/C=C\c2cc(OC)c(OC)c(OC)c2)cc1OP(=O)([O-])[O-].[Na+].[Na+] [CA4-P, combretastatin A4 disodium phosphate, reference compound]	–	–	effectively inhibited

SMILES	IC50 [3, 6] [nM]	IC50 [3, 7] [nM]	IC50 [4] [nM]	IC50 [1] [nM]	IC50 [2] [nM]	effect on MDA-MB-231 tumour growth [5]
COc1cc(C(=O)c2c(-c3cnn(C)c3)oc3c(N)c(OC)ccc23)cc(OC)c1OC [Entry 21, 7-Amino-6-methoxy-2-(1-methyl-1H-pyrazol-4-yl)-3-(3,4,5-trimethoxybenzoyl)benzo[b]furan]	< 1	1.2	–	1500 ± 100	1 to 10	–
COc1ccc2c(C(=O)c3cc(OC)c(OC)c(OC)c3)c(-c3cnn(C)c3)oc2c1 [Entry 12, 6-Methoxy-2-(1-methyl-1H-pyrazol-4-yl)-3-(3,4,5-trimethoxybenzoyl)benzo[b]furan]	3.9	4	–	1200 ± 40	1 to 10	–
COc1ccc(-c2oc3c(O)c(OC)ccc3c2C(=O)c2cc(OC)c(OC)c(OC)c2)cc1O [Entry 5, reference compound]	3.9	4.1	–	< 4000	–	–
COc1ccc2c(C(=O)c3cc(OC)c(OC)c(OC)c3)coc2c1 [Entry 6, reference compound]	60	50	–	1600 ± 200	–	–
COc1cc(C(=O)c2c(-c3ccc(C=O)s3)oc3c(O)c(OC)ccc23)cc(OC)c1OC [Entry 37, 2-(2-thiophene-5-carbaldehyde)-7-hydroxy-3-(3,4,5-trimethoxybenzoyl)-6-methoxy-benzo[b]furan]	1.8	2.3	–	–	1 to 10	–
COc1cc(C(=O)c2c(-c3cccs3)oc3c(O)c(OC)ccc23)cc(OC)c1OC [Entry 28, 7-Hydroxy-2-(2-thiophenyl)-3-(3,4,5-trimethoxybenzoyl)-6-methoxy-benzo[b]furan]	< 1	–	–	–	0.1 to 1	–
